“Also recorded” adds a separate entry of the source.
Experiments:
Type in all cases: cell-based, mouse
ICAM2+ ECs = assay: Apoptosis assay (Annexin V/PI) in ICAM2+ ECs
Procedure: FIGS. 15A-15D. ROCK suppression continuously promotes the expansion of ECs. ICAM2+ ECs were further incubated with PBS (Control), Y27632 (10┌ M), VEGF-A (50 ng/ml; VA) or Y27632 (10┌ M) plus VEGF-A (50 ng/ml) for 2 days, and analyses were performed at day 8.5. (FIG. 15A) Representative FACS analysis showing cell cycle in ICAM2+ ECs at 12 hrs. (FIG. 15B) % of ICAM2+ ECs under each phase of cell cycle at 12 hrs. Each group, n=3. *p<0.01 versus Control; ^#p<0.01 versus VEGF-A. (FIG. 15C) Representative FACS analysis of Annexin V+/PI− apoptotic ECs. (FIG. 15D) % of Annexin V+/PI− ECs. Each group, n=3. *p<0.01 versus Control.
Apoptosis assay was performed as previously described. To determine the cell cycle, BrdU/7-AAD cell cycle analysis was performed according to the manufacturer's instructions (BD Pharmingen™). Briefly, cells were incubated with BrdU (1 mM) for 1 hr, dissociated with dissociation buffer, and stained with anti-CD144 antibody. The cells were then fixed, permeabilized, and fixed once more, followed by 1 hr incubation with DNase I (200 U) at 37┌ C. After incubation with FITC-conjugated anti-BrdU antibody for 20 min at RT, the cells were stained with 7-AAD. The cells were analyzed by FACS Aria II and the data were analyzed using FlowJo software.

Flk1+ MPCs = assay: Western blotting of signaling proteins in Flk1+ MPCs
Procedure: FIGS. 10A-10B. PI3-kinase/Akt signaling and MyPT-MLC signaling are involved in ROCK suppression-induced expansion of ECs. Flk1+ MPCs were incubated with indicated agents for 2 days, and analyses were performed on day 6.5. (FIG. 10A) Immunoblotting for pPTEN, PTEN, pAkt, Akt, pERK, ERK, pMyPT, MyPT, pMLC, MLC, ┌ SMA and GAPDH in Flk1+ MPCs treated with PBS (Control), Y27632 (10┌ M), VEGF-A (50 ng/ml; VA), or VA plus Y27632. The Flk1+ MPCs were cultured for 12 hrs, starved for 6 hrs with or without Y27632, and then treated with VEGF-A (50 ng/ml) for 10 min. Results from four independent trials were similar to each other. (FIG. 10B) Quantitative analyses of phosphorylations of AKT, PTEN, MyPT and MLC. Signal intensities were quantitatively evaluated using Image J software. Intensity of phosphorylated/total form of each protein in Control is regarded as 1 and relative intensities are expressed as fold. The mean of relative values from four independent experiments are represented. *p<0.01 versus Control. ^#p<0.01 versus VEGF-A. N.D represents non-detected.
Cell lysates were separated by SDS-PAGE gel and transferred to PVDF membranes for Western Blot analysis. After blocking with 5% skim milk, the membranes were first incubated with primary antibodies in blocking buffer overnight at 4┌ C, then with HRP-conjugated secondary antibodies for 1 hr at RT. The following primary antibodies were used: anti-RhoA (mouse monoclonal, Cytoskeleton Inc.), anti-ROCK1 (mouse monoclonal, Santa Cruz), anti-ROCK2 (rabbit polyclonal, Santa Cruz), anti-┌-tubulin (mouse monoclonal, Santa Cruz), anti-phospho-PTEN (Ser380/Thr382/383)(clone 44A7, Cell Signaling), anti-PTEN (clone 138G6, Cell Signaling), anti-phospho-Akt (Ser473)(clone 193H12, Cell Signaling), anti-Akt (rabbit polyclonal, Cell Signaling), anti-phospho-ERK (Thr202/Tyr204) (clone 20G11, Cell Signaling), anti-ERK (rabbit monoclonal, Cell Signaling), anti-phospho-MyPT (Thr696) (rabbit polyclonal, Cell Signaling), anti-MyPT (rabbit polyclonal, Cell Signaling), anti-phospho-MLC (Thr18/Ser19) (rabbit polyclonal, Cell Signaling), anti-MLC (rabbit polyclonal, Cell Signaling), anti-┌ SMA (rabbit polyclonal, Novus Biologicals), anti-GAPDH (rabbit polyclonal, Santa Cruz), anti-phospho-VEGFR2 (Tyr1175) (clone 19A10, Cell Signaling), and anti-VEGFR2 (clone 55B11, Cell Signaling). The secondary antibodies used were rabbit anti-mouse IgG-HRP (Santa Cruz) and goat anti-rabbit IgG-HRP (Santa Cruz). Signals were developed with enhanced chemiluminescence HRP substrate (Millipore) and detected using LAS-3000 mini (Fuji film).

VYI-ECs = assay: Scratch wound healing assay; conditions: addition of Y27632 10 μM to VEGF-A
Procedure: The purified VYI-ECs were plated on Matrigel-coated plates and incubated in differentiation medium until confluent. A single scratch wound was made on the cell-plated surface with a 200┌ l disposable pipette tip, and the medium was exchanged with a new medium containing either VEGF-A (50 ng/ml), Y27632 (10┌ M), or both. The wound was allowed to heal for 12 hrs. Phase contrast images were taken at 0, 3, 6, and 12 hrs. The average extent of wound closure was evaluated by measuring the wound area using ImageJ software.

[1] = Y27632 10 μM, VEGF-A 50 ng/ml for 10 min
[2] = regardless of VEGF-A stimulation

C[C@@H](N)[C@H]1CC[C@H](C(=O)Nc2ccncc2)CC1 [Y27632]
apoptosis of ECs (ICAM2+ ECs): mildly inhibited | phosphorylation of Akt (Ser473) (Flk1+ MPCs; [1]): phosphorylated | phosphorylation of ERK (Flk1+ MPCs; [1]): but not ERK | phosphorylation of PTEN (Ser380, Thr382 and Thr383) (Flk1+ MPCs; [1]): phosphorylated | phosphorylation of MLC (Flk1+ MPCs; [2]): almost completely reduced; also recorded: inhibits | phosphorylation of MyPT (Flk1+ MPCs; [2]): almost completely reduced | protein levels of αSMA (Flk1+ MPCs; [2]): reduced | increase of cell invasion into the wound region (VYI-ECs): 2.1 fold

— patent US20150368617A1, “METHOD FOR FORMING ENDOTHELIAL CELLS” (Korea Advanced Institute of Science and Technology (KAIST), priority 2012, published 2015)
